Measurements from patent US11654198B2, “Application of combination of polyethylene glycol and local anesthetic in non-narcotic analgesia” (JENKEM TECHNOLOGY CO., LTD. (TIANJIN), priority 2016, dated 2023).

Legend:
SD rats [1] = assay: Sensory block, hot plate paw withdrawal time, bupivacaine minimum/maximum analgesic dose test (Example 28); assay type: in vivo, rat
Text: 1.3 Test substance: bupivacaine injection, diluted with physiological saline to the target concentration; the reference substance is physiological saline.
After the animals are anesthetized by intraperitoneal injection of 10% chloral hydrate solution, the sciatic nerve is exposed to the biceps and gluteus maximus joints of the hind limbs through surgery, and silicone flexible catheters of the same length (7 cm) are placed around the sciatic nerve. the other ends of the catheters are subcutaneously embedded in the back of the rat, and then sutured and fixed, and 0.2 mL of an antibiotic solution (5,000 U/ml penicillin G) is injected for anti-inflammatory.
After 2-3 days of catheterization, the SD rats with the body weight of 230-250 g and into which catheters are embedded are screened before the experiment by a hot plate method. The hot plate is heated to (56±1)° C., one of the hind paws of the rat is placed on the hot plate, and the other hind paw is placed in the laboratory room temperature condition, and the tested paw withdrawal time is observed and recorded. The average value of three times measured is recorded as a basic pain threshold.
Twenty-four qualified rats (animals with no dyskinesia and pain threshold change after catheterization) are randomly divided into 6 groups, 4 rats in each group, the first group is a control group, the experimental animals are administered with normal saline, and the other groups are administered with different doses of bupivacaine injection. Each group is injected with a corresponding drug through the catheter around the sciatic nerve.
The sensory block of the rats is examined by a hot plate method. The hot plate is heated to (56±1)° C., one of the hind paws of the rat is placed on the hot plate, and the other hind paw is placed at room temperature in the laboratory, the tested paw withdrawal time is observed and recorded. The average value of two to three times is recorded as a pain threshold. The paw withdrawal time of the hot plate method is recorded. In order to avoid the damage of the experimental animal body, if the rat has not withdrawal paw in the hot plate experiment for more than 15 s, the rat should be removed from the hot plate, and the experimental result is recorded as 15 s. The time point for determining the paw withdrawal time of the hot plate is before administration, and 5 minutes, 10 minutes, 30 minutes, 1 hour, and 2 hours after administration.

SD rats [2] = assay: Motor block four-level score, rat sciatica model (SNL) (Example 32); assay type: in vivo; parameters: key to motor function score: 1 = normal paw movement to 4 = complete loss, gait defect; settings: bupivacaine 8, conjugate 10/11/12 32/24/48 mg/kg
Text: Intervertebral disc compression (SNL): This model is a pathological form that simulates clinical disc herniation. The specific method is to remove the autogenous caudal intervertebral disc tissue (annulus fibrosus and nucleus pulposus) form the rats and place the caudal intervertebral disc tissue between the proximal nerve root of the L5 dorsal root ganglion and the lower vertebral body to directly compress the L5 nerve root, wherein damage to the L5 nerve root or dorsal root ganglion should be avoided during the operation. 3 to 15 days after the model is successful, rats develop significant hyperalgesia, so the administration time we chose is between 3 days and 15 days.
Qualified rats are randomly divided into 5 groups, 6 rats in each group, which are labeled as groups G1, G2, G3, G4 and G5, respectively. Administration by intramuscular injection around sciatic nerve is adopted, and the grouping information of the experimental animals is shown in Table 11.
Motor block (four-level score): The exercise condition of each group of rats is evaluated by the motor block four-level scoring method. The scoring criteria are: paws can be dorsiflexed, stretched, valgus and other normal exercises, scored by 1 point; paws can be dorsiflexed, bendable or after the adduction, although the paws can be stretched, the stretching ability is weakened, scored by 2 points; the paw can perform dorsiflexion, but no longer has the ability to stretch, scored by 3 points; the paw completely loses the ability of dorsiflexion, curling and stretching, and the rats produce a gait defect, scored by 4 points. The time point for determining the withdrawal time of the hot plate is before administration, and 0.5 h, 1 h, 2 h, 4 h, 6 h, 8 h, 12 h, and 24 h after administration.

## CCCCN1CCCCC1C(=O)Nc1c(C)cccc1C (centres unmarked) [bupivacaine]
SD rats [1]; group 2, 3 mg/kg (0.66 mg/rat) trans-catheter, 0 min (before administration)
  hot plate paw withdrawal time: 3.26 ± 0.88 s
SD rats [1]; group 2, 3 mg/kg (0.66 mg/rat) trans-catheter, 5 min
  hot plate paw withdrawal time: 6.32 ± 2.29 s
SD rats [1]; group 2, 3 mg/kg (0.66 mg/rat) trans-catheter, 10 min
  hot plate paw withdrawal time: 7.7 ± 3.88 s
SD rats [1]; group 2, 3 mg/kg (0.66 mg/rat) trans-catheter, 30 min
  hot plate paw withdrawal time: 7.85 ± 3.36 s
SD rats [1]; group 2, 3 mg/kg (0.66 mg/rat) trans-catheter, 60 min
  hot plate paw withdrawal time: 5.91 ± 1.9 s
SD rats [1]; group 2, 3 mg/kg (0.66 mg/rat) trans-catheter, 120 min
  hot plate paw withdrawal time: 4.26 ± 1.42 s
SD rats [1]; group 3, 1 mg/kg (0.22 mg/rat) trans-catheter, 0 min (before administration)
  hot plate paw withdrawal time: 2.75 ± 0.74 s
SD rats [1]; group 3, 1 mg/kg (0.22 mg/rat) trans-catheter, 5 min
  hot plate paw withdrawal time: 5.17 ± 5.41 s
SD rats [1]; group 3, 1 mg/kg (0.22 mg/rat) trans-catheter, 10 min
  hot plate paw withdrawal time: 7.13 ± 5.43 s
SD rats [1]; group 3, 1 mg/kg (0.22 mg/rat) trans-catheter, 30 min
  hot plate paw withdrawal time: 7.13 ± 4.01 s
SD rats [1]; group 3, 1 mg/kg (0.22 mg/rat) trans-catheter, 60 min
  hot plate paw withdrawal time: 3.24 ± 0.85 s
SD rats [1]; group 3, 1 mg/kg (0.22 mg/rat) trans-catheter, 120 min
  hot plate paw withdrawal time: 2.13 ± 0.8 s
SD rats [1]; group 4, 0.3 mg/kg (0.066 mg/rat) trans-catheter, 0 min (before administration)
  hot plate paw withdrawal time: 3.42 ± 0.87 s
SD rats [1]; group 4, 0.3 mg/kg (0.066 mg/rat) trans-catheter, 5 min
  hot plate paw withdrawal time: 6.08 ± 1.68 s
SD rats [1]; group 4, 0.3 mg/kg (0.066 mg/rat) trans-catheter, 10 min
  hot plate paw withdrawal time: 7.11 ± 2.55 s
SD rats [1]; group 4, 0.3 mg/kg (0.066 mg/rat) trans-catheter, 30 min
  hot plate paw withdrawal time: 7.09 ± 1.45 s
SD rats [1]; group 4, 0.3 mg/kg (0.066 mg/rat) trans-catheter, 60 min
  hot plate paw withdrawal time: 3.62 ± 1.25 s
SD rats [1]; group 4, 0.3 mg/kg (0.066 mg/rat) trans-catheter, 120 min
  hot plate paw withdrawal time: 3.76 ± 0.69 s
SD rats [1]; group 5, 0.1 mg/kg (0.022 mg/rat) trans-catheter, 0 min (before administration)
  hot plate paw withdrawal time: 3.08 ± 0.61 s
SD rats [1]; group 5, 0.1 mg/kg (0.022 mg/rat) trans-catheter, 5 min
  hot plate paw withdrawal time: 4.41 ± 3.24 s
SD rats [1]; group 5, 0.1 mg/kg (0.022 mg/rat) trans-catheter, 10 min
  hot plate paw withdrawal time: 4.22 ± 2.45 s
SD rats [1]; group 5, 0.1 mg/kg (0.022 mg/rat) trans-catheter, 30 min
  hot plate paw withdrawal time: 3.59 ± 1.89 s
SD rats [1]; group 5, 0.1 mg/kg (0.022 mg/rat) trans-catheter, 60 min
  hot plate paw withdrawal time: 2.63 ± 0.41 s
SD rats [1]; group 5, 0.1 mg/kg (0.022 mg/rat) trans-catheter, 120 min
  hot plate paw withdrawal time: 2.96 ± 1.38 s
SD rats [1]; group 6, 0.03 mg/kg (0.0066 mg/rat) trans-catheter, 0 min (before administration)
  hot plate paw withdrawal time: 3.06 ± 1.1 s
SD rats [1]; group 6, 0.03 mg/kg (0.0066 mg/rat) trans-catheter, 5 min
  hot plate paw withdrawal time: 3.36 ± 0.91 s
SD rats [1]; group 6, 0.03 mg/kg (0.0066 mg/rat) trans-catheter, 10 min
  hot plate paw withdrawal time: 2.67 ± 0.6 s
SD rats [1]; group 6, 0.03 mg/kg (0.0066 mg/rat) trans-catheter, 30 min
  hot plate paw withdrawal time: 3.11 ± 1.22 s
SD rats [1]; group 6, 0.03 mg/kg (0.0066 mg/rat) trans-catheter, 60 min
  hot plate paw withdrawal time: 2.66 ± 0.53 s
SD rats [1]; group 6, 0.03 mg/kg (0.0066 mg/rat) trans-catheter, 120 min
  hot plate paw withdrawal time: 3.09 ± 0.82 s
SD rats [2]; 0.5 h
  motor function score: 1 ± 0
SD rats [2]; 1 h
  motor function score: 1.75 ± 0.5
SD rats [2]; 2 h
  motor function score: 1.75 ± 0.5
SD rats [2]; 4 h
  motor function score: 1.75 ± 0.5
SD rats [2]; 6 h
  motor function score: 1.75 ± 0.5
SD rats [2]; 8 h
  motor function score: 1.75 ± 0.5
SD rats [2]; 12 h
  motor function score: 1 ± 0
SD rats [2]; 24 h
  motor function score: 1 ± 0
